Active and inactive are the calls of the source.
Key:
[1] = biological target: T1, Zinc finger protein mex-5 (Caenorhabditis elegans, UniProt Q9XUB2); assay: potency of MEX-5 RNA-binding blockers – biochemical, C. elegans, fluorescence polarization, dose response (AID 1960)
T1 sequence (Q9XUB2 whole entry): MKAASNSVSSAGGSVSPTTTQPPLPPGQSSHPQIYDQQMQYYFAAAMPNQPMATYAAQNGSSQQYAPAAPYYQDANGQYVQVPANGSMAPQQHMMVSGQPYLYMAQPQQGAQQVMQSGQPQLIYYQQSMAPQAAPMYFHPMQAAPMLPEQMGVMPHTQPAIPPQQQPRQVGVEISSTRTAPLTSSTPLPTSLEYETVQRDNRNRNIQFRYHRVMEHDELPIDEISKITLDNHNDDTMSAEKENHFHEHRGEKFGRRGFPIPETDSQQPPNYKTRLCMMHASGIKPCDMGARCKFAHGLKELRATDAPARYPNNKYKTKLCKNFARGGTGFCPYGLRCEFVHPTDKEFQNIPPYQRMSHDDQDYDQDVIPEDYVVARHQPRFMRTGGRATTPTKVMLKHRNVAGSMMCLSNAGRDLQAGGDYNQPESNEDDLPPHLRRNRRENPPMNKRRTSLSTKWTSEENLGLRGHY

[2] = biological target: T2, Rac GTPase-activating protein 1 (Homo sapiens, UniProt Q9H0H5); assay: blockers of MgcRacGAP-driven Rac1 GTP hydrolysis – biochemical, ADP Hunter fluorescence, primary and confirmatory, confirmation (AID 624330); type: functional
T2 sequence (Q9H0H5 whole entry): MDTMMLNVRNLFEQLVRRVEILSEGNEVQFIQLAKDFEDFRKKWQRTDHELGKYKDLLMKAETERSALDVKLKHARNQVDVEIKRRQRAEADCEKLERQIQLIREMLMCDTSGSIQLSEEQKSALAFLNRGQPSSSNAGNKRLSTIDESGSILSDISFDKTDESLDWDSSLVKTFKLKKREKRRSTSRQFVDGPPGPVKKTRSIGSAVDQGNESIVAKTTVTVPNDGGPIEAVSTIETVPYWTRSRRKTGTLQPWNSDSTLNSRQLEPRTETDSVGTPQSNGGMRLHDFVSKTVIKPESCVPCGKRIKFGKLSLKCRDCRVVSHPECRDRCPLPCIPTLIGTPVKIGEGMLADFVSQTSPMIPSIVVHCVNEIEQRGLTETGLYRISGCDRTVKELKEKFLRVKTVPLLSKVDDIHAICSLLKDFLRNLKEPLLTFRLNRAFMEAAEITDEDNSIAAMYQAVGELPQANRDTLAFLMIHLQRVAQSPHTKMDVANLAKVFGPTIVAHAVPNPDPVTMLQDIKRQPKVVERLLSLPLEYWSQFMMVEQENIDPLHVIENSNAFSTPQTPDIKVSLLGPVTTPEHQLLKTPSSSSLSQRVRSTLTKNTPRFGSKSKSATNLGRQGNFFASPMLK

[3] = biological target: Glucose-6-phosphate 1-dehydrogenase (Homo sapiens, UniProt P11413); assay: inhibition of Homo sapiens G6PD, dose series – biochemical, fluorescence, selectivity assay for P. falciparum G6PD inhibitor project, dose response (AID 504792); type: functional
[4] = biological target: T3, RNA-binding protein pos-1 (Caenorhabditis elegans, UniProt G5EF15); assay: disruptors of C. elegans POS-1 RNA interaction – biochemical, fluorescence polarization, dose response (AID 1964);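 also: purified POS-1 fused to maltose binding protein made in E. coli; potency of compounds blocking POS-1 binding to fluorescent RNA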
T3 sequence (G5EF15 whole entry): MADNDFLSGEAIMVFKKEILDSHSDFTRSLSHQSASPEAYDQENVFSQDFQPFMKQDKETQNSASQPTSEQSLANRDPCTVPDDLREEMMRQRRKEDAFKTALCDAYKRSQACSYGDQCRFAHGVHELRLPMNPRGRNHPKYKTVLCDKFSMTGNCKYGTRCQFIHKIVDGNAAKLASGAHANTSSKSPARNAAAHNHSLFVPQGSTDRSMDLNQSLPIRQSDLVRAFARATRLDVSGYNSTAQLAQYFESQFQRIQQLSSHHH

Large T antigen = Large T antigen (Simian virus 40, UniProt P03070); type: functional, Betapolyomavirus macacae;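 also: Confirmatory-stage PubChem screen for compounds that inhibit SV40 T antigen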
[5] = biological target: Peroxisome proliferator-activated receptor gamma/Nuclear receptor coactivator 2 (Homo sapiens, UniProt P37231); assay: (§1) TR-FRET dose response biochemical High Throughput Screening assay for agonists of the steroid receptor coactivator 2 (SRC-2) recruitment by the peroxisome proliferator-activated receptor gamma (PPAR gamma): non-selective agonists. [Related pubchem assays: 1297, 1032 ]; type: functional
[6] = biological target: Peroxisome proliferator-activated receptor gamma/Nuclear receptor coactivator 1 (Homo sapiens, UniProt P37231); assay: as §1, with “1 (SRC-1)” for “2 (SRC-2)”, “assays (depositor defined):AID1300, AID1808, AID504735, AID631]” for “assays: 1297, 1032 ]”; type: protein assay
[7] = biological target: Peroxisome proliferator-activated receptor gamma/Nuclear receptor coactivator 3 (Homo sapiens, UniProt P37231); assay: as §1, with “3 (SRC-3)” for “2 (SRC-2)”, “1301 (Confirmation screen.), 1048 (Primary screen.)]” for “1297, 1032 ]”; type: functional
Cytochrome P450 2C9 = Cytochrome P450 2C9 (Homo sapiens, UniProt P11712)
Cytochrome P450 2D6 = Cytochrome P450 2D6 (Homo sapiens, UniProt P10635);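 also: CYP2D6 member of a cytochrome P450 panel assay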
[8] = biological target: DNA dC->dU-editing enzyme APOBEC-3A (Homo sapiens, UniProt P31941); assay: Dose Response confirmation of small molecule APOBEC3A DNA Deaminase Inhibitors via a fluorescence-based single-stranded DNA deaminase assay. [Related pubchem assays (depositor defined):AID493011, AID493024]; type: functional
[9] = biological target: DNA dC->dU-editing enzyme APOBEC-3G (Homo sapiens, UniProt Q9HC16); type: functional;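 also: Dose-response counterscreen measuring inhibition of APOBEC3G DNA deaminase activity, run while confirming APOBEC3A inhibitors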
HeLa = assay: ATP-based viability loss in HeLa cells – cell-based, CellTiter-Glo luminescence, cherry-pick samples, cytotoxicity control for MITF activator project, dose response (AID 540259); type: functional; conditions: Homo sapiens
[10] = biological target: T4, Alkaline phosphatase, tissue-nonspecific isozyme (Homo sapiens, UniProt P05186); assay: potency against alkaline phosphatase TNAP – biochemical, luminescent, dose response, SAR follow-up (AID 1056)
T4 sequence (P05186 whole entry): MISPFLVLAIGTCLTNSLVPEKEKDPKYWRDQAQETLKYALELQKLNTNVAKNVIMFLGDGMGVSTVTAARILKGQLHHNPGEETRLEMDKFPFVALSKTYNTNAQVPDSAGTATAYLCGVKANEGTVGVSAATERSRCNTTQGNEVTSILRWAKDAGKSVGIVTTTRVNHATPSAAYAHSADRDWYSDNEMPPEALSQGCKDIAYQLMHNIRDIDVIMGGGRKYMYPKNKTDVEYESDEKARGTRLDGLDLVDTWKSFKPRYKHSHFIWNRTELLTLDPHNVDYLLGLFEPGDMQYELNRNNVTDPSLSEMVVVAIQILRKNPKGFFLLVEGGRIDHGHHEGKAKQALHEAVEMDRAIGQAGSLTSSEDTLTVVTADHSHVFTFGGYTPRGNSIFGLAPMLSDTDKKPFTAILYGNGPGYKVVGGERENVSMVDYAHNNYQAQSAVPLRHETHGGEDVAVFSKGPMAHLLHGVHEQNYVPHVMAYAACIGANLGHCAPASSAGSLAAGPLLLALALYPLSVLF

[11] = biological target: Alkaline phosphatase, placental type (Homo sapiens, UniProt P05187); assay: human placental alkaline phosphatase inhibition – biochemical, luminescence, confirmation (AID 1512); type: functional
[12] = viability of uninfected HEp-2 cells – cell-based, HTS, cytotoxicity control for RSV inhibitor project, dose response (AID 2410); type: functional; conditions: human respiratory syncytial virus
[13] = biological target: FAD-linked sulfhydryl oxidase ALR (Homo sapiens, UniProt P55789); assay: ALR-catalysed DTT oxidation blockers – biochemical, H2O2 detection, luminescence, cherry-pick, dose response (AID 493248)

Chain of DNA dC->dU-editing enzyme APOBEC-3A (P31941 whole entry): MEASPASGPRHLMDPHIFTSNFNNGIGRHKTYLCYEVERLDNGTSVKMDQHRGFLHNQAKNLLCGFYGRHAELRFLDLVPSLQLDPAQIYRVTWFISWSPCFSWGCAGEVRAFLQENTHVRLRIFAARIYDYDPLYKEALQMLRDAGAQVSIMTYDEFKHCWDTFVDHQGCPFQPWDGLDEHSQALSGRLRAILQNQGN
Chain of DNA dC->dU-editing enzyme APOBEC-3G (Q9HC16 whole entry): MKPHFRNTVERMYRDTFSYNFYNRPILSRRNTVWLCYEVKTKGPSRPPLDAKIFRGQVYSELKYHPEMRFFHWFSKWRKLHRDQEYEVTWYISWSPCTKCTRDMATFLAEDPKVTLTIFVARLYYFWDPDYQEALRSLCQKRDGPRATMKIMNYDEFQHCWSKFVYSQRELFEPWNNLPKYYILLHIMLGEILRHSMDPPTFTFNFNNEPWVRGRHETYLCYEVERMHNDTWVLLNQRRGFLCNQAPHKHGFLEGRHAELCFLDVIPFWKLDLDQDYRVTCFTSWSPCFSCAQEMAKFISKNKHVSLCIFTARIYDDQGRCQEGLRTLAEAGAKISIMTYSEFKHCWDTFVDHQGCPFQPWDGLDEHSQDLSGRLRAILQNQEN
Chain of Alkaline phosphatase, placental type (P05187 whole entry): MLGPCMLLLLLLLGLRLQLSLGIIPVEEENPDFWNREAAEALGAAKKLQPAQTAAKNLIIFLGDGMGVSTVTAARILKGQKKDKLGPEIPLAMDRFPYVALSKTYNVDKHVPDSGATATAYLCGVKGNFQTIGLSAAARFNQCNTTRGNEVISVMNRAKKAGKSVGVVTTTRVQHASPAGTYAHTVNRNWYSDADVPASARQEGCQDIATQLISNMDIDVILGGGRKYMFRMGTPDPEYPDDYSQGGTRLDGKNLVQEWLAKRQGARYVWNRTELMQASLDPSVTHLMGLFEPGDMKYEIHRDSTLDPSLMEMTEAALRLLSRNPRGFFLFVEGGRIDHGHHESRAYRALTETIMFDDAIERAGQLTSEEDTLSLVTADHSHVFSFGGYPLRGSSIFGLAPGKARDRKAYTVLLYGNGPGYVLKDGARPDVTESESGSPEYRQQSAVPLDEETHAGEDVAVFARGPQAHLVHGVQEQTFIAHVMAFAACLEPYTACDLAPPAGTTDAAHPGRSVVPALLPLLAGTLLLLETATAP
Chain of Peroxisome proliferator-activated receptor gamma/Nuclear receptor coactivator 1 (P37231 whole entry): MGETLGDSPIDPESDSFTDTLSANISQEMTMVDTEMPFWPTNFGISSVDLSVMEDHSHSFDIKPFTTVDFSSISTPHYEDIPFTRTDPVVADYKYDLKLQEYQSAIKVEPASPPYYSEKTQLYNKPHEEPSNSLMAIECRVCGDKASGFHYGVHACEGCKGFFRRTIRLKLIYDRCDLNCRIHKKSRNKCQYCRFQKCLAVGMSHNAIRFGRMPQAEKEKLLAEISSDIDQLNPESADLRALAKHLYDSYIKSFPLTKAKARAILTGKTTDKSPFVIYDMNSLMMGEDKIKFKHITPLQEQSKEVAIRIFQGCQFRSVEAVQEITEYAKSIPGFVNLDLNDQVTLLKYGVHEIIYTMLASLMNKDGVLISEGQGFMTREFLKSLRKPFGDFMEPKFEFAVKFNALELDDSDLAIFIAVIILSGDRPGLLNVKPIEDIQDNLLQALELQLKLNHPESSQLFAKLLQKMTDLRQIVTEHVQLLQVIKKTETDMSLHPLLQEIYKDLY
Chain of Peroxisome proliferator-activated receptor gamma/Nuclear receptor coactivator 1 (Q15788 whole entry, further chain): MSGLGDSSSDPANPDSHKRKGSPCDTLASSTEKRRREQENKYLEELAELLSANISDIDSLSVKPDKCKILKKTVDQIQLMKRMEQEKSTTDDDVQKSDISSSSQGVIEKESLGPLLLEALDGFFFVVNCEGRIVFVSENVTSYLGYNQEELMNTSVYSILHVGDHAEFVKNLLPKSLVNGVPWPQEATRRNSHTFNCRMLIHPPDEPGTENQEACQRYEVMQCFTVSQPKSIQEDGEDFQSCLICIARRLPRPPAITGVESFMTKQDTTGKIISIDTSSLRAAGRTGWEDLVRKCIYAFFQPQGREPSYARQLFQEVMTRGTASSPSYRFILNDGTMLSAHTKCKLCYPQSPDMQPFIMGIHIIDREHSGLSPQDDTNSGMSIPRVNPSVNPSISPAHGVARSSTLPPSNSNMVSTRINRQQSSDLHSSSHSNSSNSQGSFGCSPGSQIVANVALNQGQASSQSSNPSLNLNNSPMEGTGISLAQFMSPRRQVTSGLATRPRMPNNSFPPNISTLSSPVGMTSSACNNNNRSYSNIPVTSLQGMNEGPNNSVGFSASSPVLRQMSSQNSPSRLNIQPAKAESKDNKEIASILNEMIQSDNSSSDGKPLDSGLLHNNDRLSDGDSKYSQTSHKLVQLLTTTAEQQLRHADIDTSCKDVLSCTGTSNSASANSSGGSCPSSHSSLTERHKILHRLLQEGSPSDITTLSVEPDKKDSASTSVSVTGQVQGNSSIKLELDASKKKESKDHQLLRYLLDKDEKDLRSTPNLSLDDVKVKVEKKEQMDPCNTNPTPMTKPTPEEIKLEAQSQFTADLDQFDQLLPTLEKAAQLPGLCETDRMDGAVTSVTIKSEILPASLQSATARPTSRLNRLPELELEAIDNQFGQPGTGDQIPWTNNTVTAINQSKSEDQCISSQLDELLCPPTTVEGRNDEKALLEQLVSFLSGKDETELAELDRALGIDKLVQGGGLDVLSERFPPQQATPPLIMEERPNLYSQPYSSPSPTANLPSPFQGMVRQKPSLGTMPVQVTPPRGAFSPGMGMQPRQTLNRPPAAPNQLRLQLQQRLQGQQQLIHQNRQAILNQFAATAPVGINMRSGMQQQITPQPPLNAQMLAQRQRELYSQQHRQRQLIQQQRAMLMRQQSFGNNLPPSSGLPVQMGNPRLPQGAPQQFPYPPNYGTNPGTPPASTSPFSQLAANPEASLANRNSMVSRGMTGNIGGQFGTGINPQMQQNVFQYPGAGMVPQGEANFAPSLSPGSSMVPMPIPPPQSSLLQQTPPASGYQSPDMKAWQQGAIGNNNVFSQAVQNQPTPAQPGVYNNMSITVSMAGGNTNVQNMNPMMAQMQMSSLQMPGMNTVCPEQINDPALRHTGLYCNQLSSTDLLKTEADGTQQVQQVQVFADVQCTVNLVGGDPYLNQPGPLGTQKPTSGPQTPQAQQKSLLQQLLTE
Chain of Peroxisome proliferator-activated receptor gamma/Nuclear receptor coactivator 3 (P37231 whole entry): as the sequence (P37231 whole entry) above
Chain of Peroxisome proliferator-activated receptor gamma/Nuclear receptor coactivator 3 (Q9Y6Q9 whole entry, further chain): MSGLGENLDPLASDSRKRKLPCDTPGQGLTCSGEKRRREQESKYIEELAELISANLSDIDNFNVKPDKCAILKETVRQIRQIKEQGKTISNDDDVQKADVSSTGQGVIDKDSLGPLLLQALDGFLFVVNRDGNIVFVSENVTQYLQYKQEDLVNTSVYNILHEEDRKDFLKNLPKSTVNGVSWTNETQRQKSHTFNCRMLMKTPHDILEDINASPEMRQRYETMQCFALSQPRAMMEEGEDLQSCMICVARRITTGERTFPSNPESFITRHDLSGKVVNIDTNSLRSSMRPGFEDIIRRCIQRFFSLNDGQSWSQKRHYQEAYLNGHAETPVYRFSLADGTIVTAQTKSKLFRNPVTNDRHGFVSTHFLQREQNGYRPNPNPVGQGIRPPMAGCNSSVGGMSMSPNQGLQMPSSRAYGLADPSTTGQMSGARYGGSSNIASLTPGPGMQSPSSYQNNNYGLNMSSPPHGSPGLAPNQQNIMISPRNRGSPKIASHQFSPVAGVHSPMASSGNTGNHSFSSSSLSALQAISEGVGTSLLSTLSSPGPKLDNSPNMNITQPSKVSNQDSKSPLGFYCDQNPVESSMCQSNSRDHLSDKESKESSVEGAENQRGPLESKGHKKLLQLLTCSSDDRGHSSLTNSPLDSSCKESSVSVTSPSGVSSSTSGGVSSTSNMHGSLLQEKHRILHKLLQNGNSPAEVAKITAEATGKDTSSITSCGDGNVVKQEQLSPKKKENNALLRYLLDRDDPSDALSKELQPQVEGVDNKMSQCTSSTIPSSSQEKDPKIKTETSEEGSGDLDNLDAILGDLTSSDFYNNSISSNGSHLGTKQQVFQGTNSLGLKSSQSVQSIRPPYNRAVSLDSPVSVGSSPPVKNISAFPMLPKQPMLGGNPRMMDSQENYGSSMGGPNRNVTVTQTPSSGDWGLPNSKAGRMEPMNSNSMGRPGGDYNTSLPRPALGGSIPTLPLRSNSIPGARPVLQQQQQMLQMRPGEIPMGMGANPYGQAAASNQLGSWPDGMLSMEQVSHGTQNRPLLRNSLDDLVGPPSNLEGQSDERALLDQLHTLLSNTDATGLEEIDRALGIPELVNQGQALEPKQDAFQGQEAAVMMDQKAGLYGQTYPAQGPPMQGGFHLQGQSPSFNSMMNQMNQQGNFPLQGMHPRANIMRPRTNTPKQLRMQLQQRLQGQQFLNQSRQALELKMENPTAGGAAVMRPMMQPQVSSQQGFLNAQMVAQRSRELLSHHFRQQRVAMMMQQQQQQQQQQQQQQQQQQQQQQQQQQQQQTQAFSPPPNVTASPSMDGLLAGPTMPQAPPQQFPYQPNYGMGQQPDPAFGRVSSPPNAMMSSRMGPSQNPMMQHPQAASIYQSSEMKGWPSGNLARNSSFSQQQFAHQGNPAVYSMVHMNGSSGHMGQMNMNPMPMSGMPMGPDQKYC

CC1N(C)c2cccc3cccc(c23)N1C
EC50 [1]: > 300 µM (inconclusive)
IC50 [2]: 25 µM (active)
IC50 [3]: > 80 µM (inactive)
EC50 [4]: > 300 µM (not active)

O=c1oc2cc(O)ccc2c2ccccc12
IC50 (Large T antigen): 38.8 µM (active)
EC50 [5]: > 79.4 µM (not active)
EC50 [6]: > 79.4 µM (inactive)
EC50 [7]: > 79.4 µM (not active)

COc1ccc(C(=O)CN(C(=O)c2ccc(Cl)cc2)N2C(=O)c3ccccc3C2=O)cc1
AC50 (Cytochrome P450 2C9): 10 µM (inconclusive)
AC50 (Cytochrome P450 2D6): inconclusive

O=C(NCc1ccc2c(c1)OCO2)c1cc(-n2cnnc2)ccc1Cl
IC50 [8]: 1.64 µM (active)
IC50 [9]: 2.44 µM (active)

CC(C)Nc1oc(-c2cccc3ccccc23)nc1C#N
AC50 (HeLa): 76.7 µM (active)

Cc1cc(O)oc2nnc(-c3ccccc3)c1-2
IC50 [10]: 0.23 µM (active)
IC50 [11]: > 100 µM (inactive)
CC50 [12]: 34.3 µM (active)

Cc1nccn1CC(=O)c1ccc(O)c(O)c1
IC50 [10]: 59.6 µM (active)
IC50 [11]: 2.37 µM (active)
AC50 [13]: 4.4 µM (active)

O=C(NCCc1ccc(O)c(O)c1)C1CCCO1 (stereo not given)
IC50 [10]: > 100 µM (inactive)
IC50 [11]: 44.4 µM (active)

CC1CCN(C(=O)c2ncn(C)c2C(=O)N2CCC(C)CC2)CC1
IC50 [8]: 2.34 µM (active)
IC50 [9]: 2.83 µM (active)

CN(C)S(=O)(=O)c1ccc(C(=O)NCC[N+]2(C)CCCCCC2)o1
IC50 [8]: 1.89 µM (active)
IC50 [9]: 4.08 µM (active)

From ChEMBL document CHEMBL1201862, “PubChem BioAssay data set” (2004)
